Data published in patent US9808527B2, “Methods and compositions for treating HIV infections” (priority 2006, dated 2017).
“Also recorded” adds a separate entry of the source. Where two headings read alike, the source gives them in different places.

What was measured:
Ba-L (B-R5) = experiment: p24 Gag production inhibition, PHA-PBMs, subtype B Ba-L; format: cell-based, HIV-1; conditions: Human immunodeficiency virus 1, BAL, read-out: IC50 against Ba-L (B-R5)
Protocol: (§1) Drug susceptibility assay. The susceptibility of HIV-1LAI, HIV-2EHO, HIV-2ROD, to various drugs and the cytotoxicity of those drugs was determined by using the MTT assay. Briefly, MT-2 cells (2×10^4/mL) were exposed to 100 TCID50s (50% tissue culture infectious doses) of HIV-1LAI, HIV-2EHO, or HIV-2ROD in the presence or absence of various concentrations of drugs in 96-well microculture plates and were incubated at 37° C. for 7 days. After 100 μL of the medium was removed from each well, 3-(4,5-dimethylthiazol-2-yl)-2,5-diphenyltetrazolium bromide (MTT) solution (10 μL, 7.5 mg/mL in phosphate-buffered saline) was added to each well in the plate, followed by incubation at 37° C. for 4 hours. […] All assays were performed in duplicate or triplicate. To determine the sensitivity of HIV-1Ba-L, HIV-1ERS104 pre, and clinical multi-drug-resistant HIV-1 isolates and different subtypes of HIV-1 isolates to drugs, phytohemagglutinin-activated peripheral blood mononuclear cells (PHA-PBMs; 10^6/mL) were exposed to 50 TCID50 (50% tissue infectious dose) of each HIV-1 isolate and cultured in the presence or absence of various concentrations of drugs in 10-fold serial dilutions in 96-well microtiter culture plates. To determine the drug susceptibility of certain laboratory HIV-1 strains (HIV-1NL4-3), MT-4 cells were used as target cells. MT-4 cells (10^5/mL) were exposed to 100 TCID50 of wild type HIV-1NL4-3 and PI-resistant HIV-1NL4-3 in the presence or absence of various concentrations of drugs and were incubated at 37° C. On day 7 of culture, the supernatant was harvested and the amount of p24 Gag protein was determined by using a fully automated chemiluminescent enzyme immunoassay system (Lumipulse F; Fujirebio Inc., Tokyo, Japan) (22). […] All assays were performed in duplicate or triplicate.
(§2) The IC50 values were determined by using PHA-PBMs as target cells and the inhibition of p24 Gag protein production by each drug was used as an endpoint. All assays were conducted in duplicate, and the data shown represent mean values (±1 standard deviations) derived from the results of two or three independent experiments.

92UG029 (A-X4) = experiment: p24 Gag production inhibition, PHA-PBMs, subtype A isolate 92UG029; format: cell-based, HIV-1
Protocol: as §1, §2

HIV-2ROD = experiment: MTT assay, MT-2 cells exposed to HIV-2ROD; format: cell-based
Protocol: as §1
All assays were conducted in duplicate, and the data shown represent mean values (±1 standard deviations) derived from the results of three independent experiments.

97ZA003 (C-R5) = experiment: p24 Gag production inhibition, PHA-PBMs, subtype C isolate 97ZA003; format: cell-based, HIV-1
Protocol: as §1, §2

HIV-1LAI = experiment: MTT assay, MT-2 cells exposed to HIV-1LAI (acute HIV-1 infection assay); format: cell-based; conditions: for IC50: Human immunodeficiency virus 1, MT2, 168 h; for Selectivity Index: HIV-1LAI
Protocol: as §1

MT-2 cells = experiment: Cytotoxicity by MTT assay; format: cell-based, Human
Protocol: as §1

92TH019 (E-R5) = experiment: p24 Gag production inhibition, PHA-PBMs, subtype E isolate 92TH019; format: cell-based, HIV-1; conditions: Human immunodeficiency virus 1, read-out: IC50 against 92TH019 (E-R5)
Protocol: as §1, §2

[1] = molecular target: T1, CFP- and YFP-tagged HIV-1 protease subunits (Human immunodeficiency virus type 1 group M subtype B, UniProt P12497); format: cell-based; conditions: Cos-7 cells; for CFP A/B ratio (CFP fluorescence after/before photobleaching): ratio <1 = dimerization blocked
T1 construct: expressed in transfected cells; host or cells: Cos-7
Protocol: After 72 hr, cultured cells were examined in the FRET-HIV-1 assay system using confocal microscopy Fluoview FV500 confocal laser scanning microscope, and CFP^A/B were determined and plotted. […] The FRET efficiency was determined following acceptor photobleaching as previously described (Bastiaens et al., EMBO 1996; Siegel et al., Science's stke 2000; Firulli et al., Nature genetics, 2005; Szczesna et al., JBC 2003). Dequenching of the donor CFP by selective photobleaching of the acceptor YFP was performed by first obtaining YFP and CFP images at the same focal plane, followed by illuminating for 3 min the same image at wavelength of 488 nm with a laser power set at the maximum intensity to bleach YFP and re-capturing the same CFP and YFP images. The changes in the CFP and YFP fluorescence intensity in the images of selected regions were examined and quantified using Olympus FV500 Image software system. Background values were obtained from the regions where no cells were present and were subtracted from the values for the cells examined in all calculations. For each chimeric protein, the data were obtained from at least three independent experiments. FRET efficiency was determined using the formula: ET=(1−(IDA/ID))×100, where IDA and ID represent the steady-state donor fluorescence in the presence and absence of the acceptor, respectively. Digitized image data obtained from the experiment were prepared for presentation using Photoshop 6.0 (Adobe systems, Mountain View, Calif.). Ratios of intensities of ECFP fluorescence after photobleaching to ECFP fluorescence prior to photobleaching were determined. The ratios of more than 1 indicate that dimerization of CFP- and YFP-tagged protease subunits occurred and those of less than 1 indicate that dimerization was blocked by the test agent.
Generation of FRET-based HIV-1 expression assay. The basic concepts of the intermolecular fluorescence resonance energy transfer (FRET)-based HIV-1-expression assay (FRET-HIV-1 assay) are shown in FIG. 7. Within a plasmid (pHIV-1NL4-3), which encodes a full-length molecular infectious HIV-1 clone, the gene encoding a cyan fluorescent donor protein (CFP) was attached to the downstream end (C-terminus) of the gene encoding an HIV-1 protease subunit through the flexible linker added (five alanines), generating pHIV-1NL4-3/CFP (FIG. 7A). Within the other plasmid (pHIV-1NL4-3), the gene encoding a yellow fluorescent acceptor protein (YFP) was attached to the downstream end of protease-encoding gene in the same manner, generating pHIV-1NL4-3/YFP. Both CFP and YFP were designed to have phenylalanine and proline in the connection with reverse transcriptase so that the protease is cleaved from reverse transcriptase when two subunits dimerize and the dimerized protease acquires enzymatic activity. […] A focused laser beam excitation of CFP (triggered by Helium-Cadmium laser) results in rapid energy transfer to YFP, and most of the fluorescence photons are emitted by YFP (Miyawaki et al. Nature 388(6645):882-887 (1997)). If the dimerization is blocked, the average distance between CFP and YFP becomes larger and the energy transfer rate is decreased and the fraction of photons emitted by YFP is lowered.
In order to interpret the energy transfer efficiency quantitatively, an acceptor photobleaching technique was used, in which the change in CFP emission quenching is measured by comparing the value before and after selectively photobleaching YFP, which prevents problems associated with variable expression levels.

[2] = Human immunodeficiency virus 1, PHA-PBMs, p24 Gag production, read-out: IC50 against 92UG029 (A-X4)
[3] = Human immunodeficiency virus 2, MT2, MT-2 cells, 100 TCID50, MTT assay, read-out: IC50 against HIV-2ROD
[4] = Human immunodeficiency virus 1, PHA-PBMs, p24 Gag production, read-out: IC50 against 97ZA003 (C-R5)
[5] = MT-2 cells, 100 TCID50 of HIV-1LAI, MTT assay on day 7, read-out: IC50 against HIV-1LAI
[6] = cytotoxicity, MTT assay, MT-2 cells, read-out: CC50
[7] = Human immunodeficiency virus 2, MT2, read-out: IC50 against HIV-2ROD
[8] = read-out: IC50 against HIV-1LAI, MT-2 cells, 100 TCID50 of HIV-1LAI, MTT assay on day 7

| Compound | IC50 (Ba-L (B-R5); PHA-PBMs, p24 Gag production) [nM] | IC50 (92UG029 (A-X4); [2]) [nM] | IC50 (HIV-2ROD; [3]) [nM] | IC50 (97ZA003 (C-R5); [4]) [nM] | IC50 (HIV-1LAI; [5]) [nM] | CC50 (MT-2 cells; [6]) [nM] | IC50 (92TH019 (E-R5)) [nM] | IC50 (HIV-2ROD; [7]) [nM] | Selectivity Index (HIV-1LAI; MT-2 cells) | IC50 (HIV-1LAI; [8]) [nM] | CC50 (MT-2 cells; human, 7 days) [nM] | inhibition of protease dimerization ([1]; 1 μM) | CFP A/B ratio (CFP fluorescence after/before photobleaching) ([1]; 1 μM) | inhibition of protease dimerization ([1]; 10 μM) | IC50 (HIV-1LAI; read-out: MTT assay (IC50, nM), Human CD4+ MT-2 cells, 100 TCID50 of HIV-1LAI, day 7) [nM] | IC50 (Ba-L (B-R5)) [nM] | IC50 (92UG029 (A-X4); Human immunodeficiency virus 1, read-out: IC50 against 92UG029 (A-X4)) [nM] | IC50 (97ZA003 (C-R5); Human immunodeficiency virus 1, read-out: IC50 against 97ZA003 (C-R5)) [nM] |
| --- | --- | --- | --- | --- | --- | --- | --- | --- | --- | --- | --- | --- | --- | --- | --- | --- | --- | --- |
| CC(C)CN(C[C@@H](O)[C@H](Cc1ccccc1)NC(=O)O[C@H]1CCOC1)S(=O)(=O)c1ccc(N)cc1 [APV, Amprenavir] | 25 ± 6 | 46 ± 6 | 570 ± 10 | 33 ± 5 | 36 ± 2 | > 100000 | 21 ± 6 |  |  |  |  |  |  |  |  |  |  |  |
| COC(=O)N[C@H](C(=O)N[C@@H](Cc1ccccc1)[C@@H](O)CN(Cc1ccc(-c2ccccn2)cc1)NC(=O)[C@@H](NC(=O)OC)C(C)(C)C)C(C)(C)C [ATV, Atazanavir] | 1.3 ± 0.4 | 6 ± 2 |  | 3.4 ± 0.1 |  |  | 2.7 ± 0.1 | 13 ± 6 | 5750 | 4.8 ± 0.1 | 27600 | None | 1.25±0.12 | none of these 4 PIs inhibited protease dimerization |  |  |  |  |
| CC(C)CN(CC(O)C(Cc1ccccc1)NC(=O)OC1COC2OCCC12)S(=O)(=O)c1ccc2c(c1)OCO2 (stereo not drawn) [GRL-98065] | 0.2 ± 0.1 | 0.5 ± 0.2 |  | 0.5 ± 0.1 |  |  | 0.3 ± 0.1 | 4.5 ± 0.4 | 71,400 | ~0.5 |  | dimerization was effectively blocked; also recorded: disrupt protease dimerization |  |  | 0.4 |  |  |  |
| CC(C)(C)NC(=O)[C@@H]1CN(Cc2cccnc2)CCN1C[C@@H](O)C[C@@H](Cc1ccccc1)C(=O)N[C@H]1c2ccccc2C[C@H]1O [IDV, indinavir] | 22 ± 5 | 44 ± 9 | 54 ± 3 | 37 ± 6 | 48 ± 7 | 69800 | 21 ± 1 |  |  |  |  |  |  |  |  |  |  |  |
| Cc1cccc(C)c1OCC(=O)N[C@@H](Cc1ccccc1)[C@@H](O)C[C@H](Cc1ccccc1)NC(=O)[C@H](C(C)C)N1CCCNC1=O [LPV, lopinavir] | 5.3 ± 0.4 | 7 ± 1 | 4.9 ± 0.8 | 7.3 ± 0.6 | 7 ± 1 | > 100000 | 3.3 ± 0.5 |  |  |  |  | None |  |  |  |  |  |  |
| Cc1c(O)cccc1C(=O)N[C@@H](CSc1ccccc1)[C@H](O)CN1C[C@H]2CCCC[C@H]2C[C@H]1C(=O)NC(C)(C)C [NFV, Nelfinavir] | 18 ± 4 | 43 ± 6 | 240 ± 9 | 37 ± 7 | 32 ± 4 | 8100 | 29 ± 4 |  |  |  |  | None |  | none of these 4 PIs inhibited protease dimerization |  |  |  |  |
| CC(C)c1nc(CN(C)C(=O)N[C@H](C(=O)N[C@@H](Cc2ccccc2)C[C@H](O)[C@H](Cc2ccccc2)NC(=O)OCc2cncs2)C(C)C)cs1 [RTV, ritonavir] | 23 ± 6 | 71 ± 11 | 260 ± 10 | 39 ± 4 | 54 ± 1 |  | 30 ± 9 |  |  |  |  | None |  |  |  |  |  |  |
| CC(C)(C)NC(=O)[C@@H]1C[C@@H]2CCCC[C@@H]2CN1C[C@@H](O)[C@H](Cc1ccccc1)NC(=O)[C@H](CC(N)=O)NC(=O)c1ccc2ccccc2n1 [SQV, Saquinavir] |  |  |  |  |  | 16400 | 3 ± 0.1 | 4.3 ± 0.2 | 2050 | 8 ± 1 |  | None | 1.11±0.15 | none of these 4 PIs inhibited protease dimerization |  | 8.3 ± 0.5 | 4.8 ± 0.5 | 6.7 ± 0.8 |
